Results taken from patent publication US4216164A, “Ureide inhibitors of connective tissue destruction” (American Cyanamid Company, priority 1978, dated 1980).
Where “and” joins values, the source holds several entries; their conditions need not be identical. Identical values can stand only once. Counter-ions that a name gives are not always drawn.

Legend:
collagenase = details: Thromb. Res. 1977, 10(4), 605-11; cited from earlier work
[1] = system: neutral proteases derived from human leukocytes; assay: Leukocyte Neutral Proteases Inhibitor Assay; assay type: biochemical; details: for Percent Inhibition of Neutral Protease Activity ^3 H: ^3 H label; for Percent Inhibition of Neutral Protease Activity ^35 S: ^35 S label
Protocol: (§1) An active inhibitor would inhibit the degradation of the collagen fibril; (iii) Leukocyte Neutral Proteases Inhibitor Assay--This test measures the ability of neutral proteases derived from human leukocytes to degrade radiolabeled proteoglycans entrapped in polyacrylamide beads.
(iii) Leukocyte Neutral Proteases Inhibitor Assay
Assays of Leukocyte Neutral Proteases Using ^3 H/^35 S Labeled Proteoglycans
This assay system contained (total volume of 1 ml.) 60 mM Tris-Cl, pH 7.4; 2.5 mM calcium chloride; 2.5 mM magnesium chloride; 2 mg. (dry weight) of polyacrylamide beads entrapped with labeled proteoglycans, and an aliquot of the leukocyte neutral protease preparation. The reaction mixture was incubated at 37° C. for 30 minutes in a shaking water bath. The reaction was terminated by the addition of 0.2 ml. of 5% HCl (v/v). After five minutes at room temperature, the mixture was centrifuged and the clear supernatant (0.6 ml.) was assayed for radioactivity. To determine the effect of the test compounds on degradation of proteoglycans by neutral proteases, various concentrations of the compounds were added to the reaction mixture. Appropriate blanks were included.

[2] = biological target: T1, Gingival Crevicular Fluid Collagenase (Homo sapiens, UniProt P22894); assay: Crevicular Fluid Assay; assay type: biochemical; details: diseased crevicular fluid + 30 mcg./ml. compound; control 66 ± 9; p<0.0005
T1 construct: from tissue; host or cells: gingival crevicular fluid of a volunteer with periodontal disease
Source text: as §1
(ii) Crevicular Fluid Assay
Effect of Test Compounds on Gingival Crevicular Fluid Collagenase
Since studes by Golub, et al., Dental Res., 55, 1049 (1976) have shown that the crevicular collagenase plays a major role in the degradation of collagen in periodontal tissue, the effect of test compounds on collagen degradation by this system was examined. A volunteer with diagnosed periodontal disease was used. […] After one minute, the filter paper strip was removed and the volume of the gingival crevicular fluid was measured with the aid of the Periotron (Harco Electronics, Ltd., Winnipeg, Canada). The volume of the fluid gathered from the crevice by the filter paper strip is translated by a unique transducer onto a digital readout screen. […] After reading on the meter, 1 μl. of trypsin (1.5 μg./ml.) was added to the filter paper (to activate any latent collagenase present) and after five minutes at room temperature 1 μl. of aprotinin was added. […] The tubes were centrifuged as described above and a 200 μl. aliquot of the clear supernatant was assayed for radioactivity.

[3] = system: fibroblast collagenase and leukocyte neutral protease; assay: Enzymatic Degradation of Collagen of Human Gingiva; assay type: biochemical; details: 37° C., 36 hours, control 102.3
Protocol: The test compounds are able to inhibit the degradation of collagen of gingival tissue. Dried pieces of human gingiva were incubated at 37° C. for 36 hours with fibroblast collagenase and leukocyte neutral protease in the presence of test compound (30 and 50 μg./ml.). Antibiotics were present to prevent bacterial growth. After incubation, the residual tissue was hydrolyzed in 6 N hydrochloric acid and the hydroxyproline content (collagen) was determined. When collagenase and neutral protease were added to human gingiva, approximately 100 μg of collagen/mg. dry tissue was digested. If the test compound was present, degradation of gingival collagen was inhibited.

corneal ulcerations = details: alkali burned rabbit; directly applied to corneal ulcerations; cited from earlier work
corneal ulceration = details: human; cited from earlier work
[4] = biological target: T2, human skin fibroblast collagenase (Homo sapiens, UniProt P03956); assay: Collagenase Assay, Test Code 006; assay type: biochemical; details: test conc.: 30 μg./ml.
T2 construct: endogenous in cells; host or cells: human skin fibroblasts
T2 sequence (P03956 100-469): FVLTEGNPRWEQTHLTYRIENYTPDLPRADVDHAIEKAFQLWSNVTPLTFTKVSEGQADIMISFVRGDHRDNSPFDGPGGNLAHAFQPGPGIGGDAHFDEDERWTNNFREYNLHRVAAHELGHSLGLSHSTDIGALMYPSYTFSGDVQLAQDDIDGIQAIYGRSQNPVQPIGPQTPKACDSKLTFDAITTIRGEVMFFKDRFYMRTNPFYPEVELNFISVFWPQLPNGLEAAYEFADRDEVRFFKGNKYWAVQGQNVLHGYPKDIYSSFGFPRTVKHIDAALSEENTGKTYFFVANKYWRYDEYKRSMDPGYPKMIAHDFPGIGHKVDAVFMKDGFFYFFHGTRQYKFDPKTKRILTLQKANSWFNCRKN
Protocol: (i) Collagenase Assay--Test Code 006
In a typical assay (total volume of 0.45 ml.), 100 μl. of the activated enzyme was added to the ^14 C-labeled collagen fibrils (250 μl.) followed by 100 μl. of 50 mM cacodylate, pH 7.4, containing 5 mM calcium chloride. After incubation at 37° C. for 16 hours, the tubes were centrifuged in a Beckman microfuge for five minutes at full speed. An aliquot (200 μl.) of the supernatant, representing collagenase digestion products of the fibril, was assayed for radioactivity. The effect of the test compound on collagen degradation by collagenase was examined as follows:
Appropriate blanks and trypsin controls were run in parallel.

T1 sequence (P22894 101-467): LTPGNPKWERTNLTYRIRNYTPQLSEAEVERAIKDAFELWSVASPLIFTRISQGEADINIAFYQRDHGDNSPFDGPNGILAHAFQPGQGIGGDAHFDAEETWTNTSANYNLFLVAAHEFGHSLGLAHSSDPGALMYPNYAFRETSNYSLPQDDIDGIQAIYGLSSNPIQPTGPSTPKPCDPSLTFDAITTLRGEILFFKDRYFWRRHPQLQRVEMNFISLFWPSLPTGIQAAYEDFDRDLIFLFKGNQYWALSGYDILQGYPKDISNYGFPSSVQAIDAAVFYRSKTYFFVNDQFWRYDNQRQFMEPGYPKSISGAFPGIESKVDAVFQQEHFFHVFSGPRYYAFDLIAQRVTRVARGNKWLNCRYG

For `Cc1cc(-c2ccc(/N=N/c3c(S(=O)(=O)O)cc4cc(S(=O)(=O)O)cc(N)c4c3O)c(C)c2)ccc1/N=N/c1c(S(=O)(=O)O)cc2cc(S(=O)(=O)O)cc(N)c2c1O` [trypan blue], the “inhibition of the activity of collagenase” value (collagenase) is listed as “inhibiting the activity of collagenase”.
In the case of `O=C(Nc1cccc(C(=O)Nc2ccc3cc(S(=O)(=O)O)cc(O)c3c2)c1)Nc1cccc(C(=O)Nc2ccc3cc(S(=O)(=O)O)cc(O)c3c2)c1` [6,6'-[Ureylenebis(3,1-phenylenecarbonylimino)]bis[4-hydroxy-] [6,6'-[Ureylenebis(m-phenylenecarbonylimino)]bis[4-hydroxy-2-naphthalenesulfonic acid]disodium salt], the “Percent Inhibition of Neutral Protease Activity ^3 H” value ([1]; 0.5 mcg./ml.) is reported as 0%, the “Percent Inhibition of Neutral Protease Activity ^35 S” value ([1]; 0.5 mcg./ml.) is reported as 0% and the “Percent Inhibition of Neutral Protease Activity ^3 H” value ([1]; 1.0 mcg./ml.) is reported as 17%. For the same compound, the “Percent Inhibition of Neutral Protease Activity ^35 S” value ([1]; 1.0 mcg./ml.) was 31%, the “Percent Inhibition of Neutral Protease Activity ^3 H” value ([1]; 2.0 mcg./ml.) was 21% and the “Percent Inhibition of Neutral Protease Activity ^35 S” value ([1]; 2.0 mcg./ml.) was 37%. For the same compound, the “Percent Inhibition of Neutral Protease Activity ^3 H” value ([1]; 5.0 mcg./ml.) was 47%, the “Percent Inhibition of Neutral Protease Activity ^35 S” value ([1]; 5.0 mcg./ml.) was 74% and the “Percent Inhibition of Neutral Protease Activity ^3 H” value ([1]; 10.0 mcg./ml.) was 63%. For the same compound, the “Percent Inhibition of Neutral Protease Activity ^35 S” value ([1]; 10.0 mcg./ml.) was 91%, the “cpm Collagen Degraded/Unit Periotron Reading” value [2] was 16 ± 6 cpm and the “mcg. of Collagen degraded per mg. of dry gingiva” value ([3]; neutral proteases plus 30 mcg./ml. compound) was 60.4 mcg. per mg. For the same compound, the “mcg. of Collagen degraded per mg. of dry gingiva” value ([3]; neutral proteases plus 50 mcg./ml. compound) was 27.4 mcg. per mg.
For `CC(=O)N[C@@H](CS)C(=O)O` [acetylcysteine], the frequency of ulceration (corneal ulcerations) is given as “reduce the frequency of ulceration” and the “treatment of acute and chronic corneal ulceration” value (corneal ulceration) is given as “effective”.
Work on `O=C(Nc1cccc(C(=O)Nc2ccc3cc(S(=O)(=O)O)cc(O)c3c2)c1)Nc1cccc(C(=O)Nc2ccc3cc(S(=O)(=O)O)cc(O)c3c2)c1` [6,6'-[Ureylenebis(m-phenylenecarbonylimino)]bis[4-hydroxy-2-naphthalenesulfonic acid]disodium salt] yielded an inhibition at 30 µg/mL [4] of 82%.
In the case of `O=C([O-])CN(CCN(CC(=O)[O-])CC(=O)[O-])CC(=O)[O-].[Ca+2].[Ca+2]` [Calcium ethylenediaminetetraacetate], the frequency of ulceration (corneal ulcerations) is given as “reduce the frequency of ulceration”.
Work on `O=C(Nc1ccc(C(=O)Nc2ccc3cc(S(=O)(=O)O)cc(O)c3c2)cc1)Nc1ccc(C(=O)Nc2ccc3cc(S(=O)(=O)O)cc(O)c3c2)cc1` [6,6'-[Ureylenebis(p-phenylenecarbonylimino)]bis[4-hydroxy-2-naphthalenesulfonic acid]tetrasodium salt] yielded an inhibition at 30 µg/mL [4] of 95%.
In the case of `O=C(Nc1cccc(C(=O)Nc2ccc3cc(S(=O)(=O)O)cc(O)c3c2)c1)Nc1cccc(C(=O)Nc2ccc3cc(S(=O)(=O)O)cc(O)c3c2)c1` [6,6'-[Ureylenebis(3,1-phenylenecarbonylimino)]bis[4-hydroxy-] [6,6'-[Ureylenebis(m-phenylenecarbonylimino)]bis[4-hydroxy-2-naphthalenesulfonic acid]tetrasodium salt], the “% Inhibition of Collagenase” value [4] is reported as 82% and 81%.
For `N[C@@H](CS)C(=O)O` [cysteine], the “treatment of acute and chronic corneal ulceration” value (corneal ulceration) is given as “effective”.
In the case of `Cc1ccc(C(=O)Nc2ccc(S(=O)(=O)O)c3cc(S(=O)(=O)O)cc(S(=O)(=O)O)c23)cc1NC(=O)c1cccc(NC(=O)Nc2cccc(C(=O)Nc3cc(C(=O)Nc4ccc(S(=O)(=O)O)c5cc(S(=O)(=O)O)cc(S(=O)(=O)O)c45)ccc3C)c2)c1` [Suramin], the “inhibition of the activity of collagenase” value (collagenase) is listed as “not inhibiting the action of collagenase”.
